From patent publication US8372594B2, “Secreted phospholipase A2 biomarkers for arthritis” (Case Western Reserve University, priority 2009, dated 2013)

How the values were obtained:
sPLA2-IIA = biological target: T1, sPLA2-IIA (Homo sapiens, UniProt P14555); experiment: inhibition of sPLA2-IIA activity; format: biochemical; settings: finding of the present invention
T1 sequence (P14555 21-144): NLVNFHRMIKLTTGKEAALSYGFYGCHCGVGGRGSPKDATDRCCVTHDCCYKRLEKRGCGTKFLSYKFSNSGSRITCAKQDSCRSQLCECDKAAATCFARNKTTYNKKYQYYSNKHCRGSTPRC

several sPLA2 isoforms = experiment: inhibition of several sPLA2 isoforms; format: biochemical

SMILES | preferential inhibition of sPLA2-IIA (sPLA2-IIA) | inhibition of the activity of several sPLA2 isoforms (several sPLA2 isoforms)
CCc1c(C(=O)C(N)=O)c2c(OCC(=O)O)cccc2n1Cc1ccccc1 [Compound B] | preferentially inhibit sPLA2-IIA | –
CCc1c(C(=O)C(N)=O)c2c(OC)cc3ccccc3c2n1Cc1ccccc1 [R0032107A] | preferentially inhibit sPLA2-IIA | –
CCc1c(C(=O)C(N)=O)c2c(OCC(=O)O)cc3ccccc3c2n1Cc1ccccc1 [R0050907A] | – | inhibits the activity of several sPLA2 isoforms
